{
  "source": "patent US7659278B2",
  "about": "“Use of low molecular weight compounds for preparing a medicament useful in treating mutant p53 mediated diseases” (Aprea AB, priority 2002, dated 2010)",
  "key": {"SKOV-His-175 cells": {"tested_on": "SKOV-His-175 cells", "assay": "WST-1 proliferation assay, SKOV-His-175 cells (cycloheximide, His-175-22/23 comparison)", "format": "cell-based, human", "settings": "for increase in cell survival after cycloheximide pretreatment: cycloheximide before compound, WST-1"}, "[1]": {"target": "T1, GST-His-175 mutant p53 protein (Homo sapiens, UniProt P04637, R175H)", "T1 construct": "made in house", "assay": "Band shift assay, GST-His-175 mutant p53", "format": "biochemical", "experimental": "(§1) PAb421 antibody was added to all reaction mixtures. […] Monoclonal antibody PAb421 was added to the reaction mixtures in lanes 2-8; PAb1801 was added to the reaction mixtures in lanes 9-15.\n(§2) The GST-p53 proteins were prepared as described (Selivanova et al., 1997). Band shift assays were performed in binding buffer containing 100 mM HEPES pH 7.5, 50 mM KCl, 1 mg/ml BSA, 0.1% Triton X-100, 2 mM MgC12 and 1 mM DTT essentially as in (Selivanova et al., 1996)."}, "[2]": {"target": "T2, endogenous mutant p53 proteins (Homo sapiens, UniProt P04637, R282W)", "T2 construct": "cellular extracts of human tumor cell lines carrying different p53 mutants as a source for endogenous p53 protein; endogenous in cells; host or cells: human tumour cell lines (e.g. Burkitt lymphoma BL-60; KRC/Y renal carcinoma)", "format": "biochemical", "settings": "cell extracts from Burkitt lymphoma BL-60 cells", "experimental": "as §1, §2"}, "[3]": {"target": "T3, endogenous mutant p53 proteins (Homo sapiens, UniProt P04637, C176F)", "T3 construct": "cellular extracts of human tumor cell lines carrying different p53 mutants as a source for endogenous p53 protein; endogenous in cells; host or cells: human tumour cell lines (e.g. Burkitt lymphoma BL-60; KRC/Y renal carcinoma)", "format": "biochemical", "settings": "KRC/Y cell extract", "experimental": "as §1, §2"}, "[4]": {"tested_on": "p21 and MDM2 in H1299-His-175 cells", "assay": "Western blot of p53 target genes p21 and MDM2, H1299-His-175", "format": "cell-based, human"}, "Saos-2-His-273 cell line": {"tested_on": "Saos-2-His-273 cell line", "assay": "Library screening / WST-1 growth suppression and growth curves, Saos-2-His-273", "format": "cell-based, human", "settings": "for growth suppression: with vs without mutant p53 expression, WST-1", "experimental": "In contrast, the effect of treatment on Saos-2 cells lacking p53 expression was rather minor. […] The degree of WST-1 reduction, which reflects a number of living cells, was measured by microplate reader at λ490 nm according to manufacturer (Roche). The growth suppression was calculated as a difference in absorbance at λ 490 nm between untreated and treated cells and expressed in a percent from untreated control. Growth suppression=100%×(control absorbance−treated absorbance)/control absorbance. […] The experimental set up was as described in FIG. 2A. The differences in a viability were statistically significant according to an independent t-test.\n(§3) Saos-2-His-273 cell line stably transfected with construct allowing expression of mutant His-273 p53 in a tetracycline-dependent manner was used for screening (Selivanova et al., 1997). p53 expression was inhibited by incubation of cells with doxycycline (5 μg/ml). Cells were grown in 96-well plates at a density of 3000 cells per well with or without doxycycline and treated with 25 μM of the compounds from the NCI library of low molecular weight (LMW) compounds. After 48 hours of incubation the proliferative cell reagent WST-1 (Roche) was added to the cells. The degree of WST-1 reduction, which reflects cell viability, was measured by microplate reader at λ490 nm according to the manufacturer (Roche).\nas §3, with “1997).” for “1997). p53 expression was inhibited by incubation of cells with doxycycline (5 μg/ml).”, “doxycycline. The treatment was done at a concentration of” for “doxycycline and treated with”, “each chemical” for “the compounds”, “is proportional to the” for “reflects”, “by a” for “by”, “λ 490=n” for “λ490 nm”"}, "Saos-2 cells lacking p53": {"tested_on": "Saos-2 cells lacking p53", "assay": "Colony formation assay, Saos-2 lacking p53", "format": "cell-based, human", "settings": "5 μM, colonies counted after 14 days", "source_text": "Colonies were stained with Giemsa and counted 14 days after seeding.\nThe cells were Giemsa stained and scored for the appearance of colonies after 14 days."}, "[5]": {"target": "T4, GST-wild type p53 protein (Homo sapiens, UniProt P04637)", "T4 construct": "made in house", "assay": "ELISA of p53 conformation epitopes (PAb1620, PAb240, DO-1), recombinant protein", "format": "biochemical", "settings": "for appearance of PAb240 epitope (unfolding) upon heating: heating at 37° C.; for preservation of PAb 1620 epitope upon heating: recombinant wild type and mutant p53 proteins, 30 min at 37° C.", "experimental": "Absorbance of the control sample incubated on ice was taken as 100%.\nThe procedure was performed with or without tested compounds. The ELISA analyses were done as described by (Foster et al., 1999). Briefly, after the treatment, samples were diluted with coating buffer (150 mM KCL, 25 mM HEPES) supplemented with 10 mM DTT. The whole mixture was apply to ELISA plates (MaxiSorp, Nunc) and incubated at +4° C. for 35 min. The wells were washed with coating buffer. The wells were blocked by 5% skim milk in PBS by incubating at +4° C. for 1 h. Wells were rinsed twice with PBS followed by addition of mouse primary antibodies (PAb 1620 or PAb 240) diluted 1:250 in coating buffer. Samples were incubated at +4° C. for 30 min. Wells were rinsed twice with PBS. After that, a secondary antibody (anti-mouse, conjugated with horse radish peroxidase) was incubated with samples at +4° C. for 30 min. Then plates were washed 5 times with PBS and a peroxidase substrate was added. An absorbance at λ405 nm was monitored by ELISA reader."}, "[6]": {"target": "T4, GST-wild type p53 protein", "assay": "Band shift assay, heat-inactivated GST-wild type p53", "format": "biochemical", "settings": "protein inactivated at 37° C. for 30 min", "experimental": "Lane 3, inactivation of DNA binding of wtp53 by heating.\nas §2\nTherefore, the restoration of the DNA binding of this mutant was regarded as an exceptionally difficult task."}, "[7]": {"tested_on": "p53-responsive lacZ reporter in A431 cells (endogenous His-273 mutant p53)", "assay": "p53-responsive lacZ reporter in A431 cells", "format": "cell-based, human", "settings": "50 μM for 20 hours"}, "[8]": {"tested_on": "Saos-2-His-273 human tumour xenografts", "assay": "Anti-tumour activity, Saos-2-His-273 xenograft in SCID mice", "format": "in vivo", "settings": "after 59 days", "experimental": "SCID mice were injected with Saos-2-His-273 cells. […] Tumour volumes were measured once in three days for two months.\n(§4) All animal studies were approved by the local animal ethical committee and animal care was in accordance with institutional guidelines. For toxicity assessment, 12 SCID mice (average weight 25 g) were divided in 4 groups. […] Control animals were injected with PBS. We measured weights of the mice for 1 month after the last injection. […] After 3 days the mice were divided into 4 groups. […] Injections were performed twice daily for 3 days. Tumour volume was measured during 2 months.\n(§5) In the untreated control group, the average tumour volume after 59 days was 555.7±284 mm3 (means±SE, n=3)."}, "[9]": {"assay": "Toxicity assessment in SCID mice", "format": "in vivo", "experimental": "as §4, §5"}, "[10]": {"settings": "absence of mutant p53 expression"}, "[11]": {"settings": "cells expressing mutant p53, PRIMA-1 25 μM, MIRA-1 10 μM"}, "[12]": {"settings": "recombinant protein treated with compound"}},
  "data": [
    {"smiles": "CCCOCN1C(=O)C=CC1=O", "note": "[MIRA-1, 1-(propoxymethyl)-maleimide]", "values": [
      {"measurement": "sensitivity of SKOV-His-175 cells in comparison with SKOV-His-175-22/23 cells", "setting": "SKOV-His-175 cells; after compound treatment", "value": "at least 3 fold"},
      {"measurement": "increase in cell survival after cycloheximide pretreatment", "setting": "SKOV-His-175 cells", "value": "about 4 fold"},
      {"measurement": "restoration of specific DNA binding", "setting": "[1]", "value": "able to restore the specific DNA binding of the GST-His-175 mutant p53 protein"},
      {"measurement": "restoration of DNA binding of Trp-282 mutant p53", "setting": "[2]", "value": "able to restore the sequence-specific DNA binding of the endogenous Trp-282 mutant p53"},
      {"measurement": "reactivation of Phe-176 mutant DNA binding", "setting": "[3]", "value": "not reactivated"},
      {"measurement": "induction of MDM2 and p21", "setting": "[4]; [10]", "value": "did not cause any induction of MDM2 nor p21"},
      {"measurement": "induction of MDM2 and p21", "setting": "[4]; [11]", "value": "solid induction of both MDM2 and p21"},
      {"measurement": "growth suppression", "setting": "Saos-2-His-273 cell line", "value": "suppressed the growth of cells expressing mutant p53 but did not affect the growth of cells lacking p53 expression"},
      {"measurement": "inhibition of colony formation", "setting": "Saos-2 cells lacking p53", "value": 48, "unit": "%"},
      {"measurement": "appearance of PAb240 epitope (unfolding) upon heating", "setting": "[5]", "value": "able to prevent unfolding of p53 proteins"},
      {"measurement": "increase in PAb1620+ fraction", "setting": "[5]; [12]", "value": "About 40%"},
      {"measurement": "reduction in PAb240+ fraction", "setting": "[5]; [12]", "value": "−20", "unit": "%"},
      {"measurement": "preservation of PAb 1620 epitope upon heating", "setting": "[5]", "value": "preserve the conformation-dependent epitope for PAb 1620 antibody"},
      {"measurement": "restoration of specific DNA binding after heat inactivation", "setting": "[6]", "value": "able to restore the specific DNA binding of the GST-wild type p53 protein"}
    ]},
    {"smiles": "O=C1C2CCN(CC2)C1(CO)CO", "note": "[PRIMA-1, 2,2-bis(hydroxymethyl)-1-azabicyclo[2.2.2]octan-3-one]", "values": [
      {"measurement": "increase in cell survival after cycloheximide pretreatment", "setting": "SKOV-His-175 cells", "value": 4, "unit": "fold"},
      {"measurement": "lacZ reporter induction", "setting": "[7]", "value": "appearance of lacZ-positive cells"},
      {"measurement": "average tumour volume", "setting": "[8]; 20 mg/kg i.v. twice a day for three days", "value": "53±48.5", "unit": "mm3"},
      {"measurement": "average tumour volume", "setting": "[8]; intratumour 20 mg/kg twice a day for three days", "value": "5.3±2.7", "unit": "mm3"},
      {"measurement": "average tumour volume", "setting": "[8]; intravenous 100 mg/kg twice a day for three days", "value": "11.7±8", "unit": "mm3"},
      {"measurement": "induction of MDM2 and p21", "setting": "[4]; [10]", "value": "did not cause any induction of MDM2 nor p21"},
      {"measurement": "induction of MDM2 and p21", "setting": "[4]; [11]", "value": "solid induction of both MDM2 and p21"},
      {"measurement": "growth of cells (growth curves)", "setting": "Saos-2-His-273 cell line; [10]", "value": "only caused a minor reduction in growth rate"},
      {"measurement": "growth of cells (growth curves)", "setting": "Saos-2-His-273 cell line; cells expressing mutant p53", "value": "completely inhibited growth"},
      {"measurement": "growth suppression", "setting": "Saos-2-His-273 cell line", "value": "suppressed the growth of cells expressing mutant p53 but did not affect the growth of cells lacking p53 expression"},
      {"measurement": "appearance of PAb240 epitope (unfolding) upon heating", "setting": "[5]", "value": "able to prevent unfolding of p53 proteins"},
      {"measurement": "DO-1+ fraction", "setting": "[5]; [12]", "value": "remained unchanged"},
      {"measurement": "increase in PAb1620+ fraction", "setting": "[5]; [12]", "value": 40, "unit": "%"},
      {"measurement": "reduction in PAb240+ fraction", "setting": "[5]; [12]", "value": "corresponding decrease"},
      {"measurement": "preservation of PAb 1620 epitope upon heating", "setting": "[5]", "value": "preserve the conformation-dependent epitope for PAb 1620 antibody"},
      {"measurement": "restoration of specific DNA binding after heat inactivation", "setting": "[6]", "value": "able to restore the specific DNA binding of the GST-wild type p53 protein"},
      {"measurement": "average weight of mice", "setting": "[9]; 100 mg/kg i.v. daily for 5 days, after one month of observation", "value": "20 ± 0.2", "unit": "g"},
      {"measurement": "changes in behavior or weight", "setting": "[9]; intravenous injections, compared with untreated control", "value": "did not cause any obvious changes in behavior or weight"}
    ]}
  ]
}
